This passage reports melting point and Ki results from patent US8618299B2, “Azinone-substituted azapolycycle MCH-1 antagonists, methods of making, and use thereof” (Albany Molecular Research, Inc., priority 2009, dated 2013).

Where a name gives a salt, the structure may show the parent alone.

One series concerns the target human MCH-1 receptor (Homo sapiens (Human), UniProt Q99705). The series is described as follows: Binding assay for human melanin-concentrating hormone (MCH1) receptor. The conditions noted are these: membranes from CHO-K1 cells expressing human MCH1 receptor, 1.4 nM [3H]-labeled radioligand, 60 min at 25° C., pH 7.4, Ki from Cheng Prusoff equation. As for the experimental part:
Binding Assay for Human Melanin-Concentrating Hormone (MCH1) Receptor
Evaluation of the affinity of compounds for the human MCH-1 receptor was accomplished using 4-(3,4,5-tritritiumbenzyloxy)-1-(1-(2-(pyrrolidin-1-yl)ethyl)-1H-indazol-5-yl)pyridin-2(1H)-one and membranes prepared from stable CHO-K1 cells expressing the human MCH1 receptor obtained from Euroscreen (Batch 1138). Cell membrane homogenates (8.92 μg protein) were incubated for 60 min at 25° C. with 1.4 nM of the [^3H]-labeled compound in the absence or presence of the test compound in 50 mM Tris-HCl buffer, pH 7.4. Nonspecific binding was determined in the presence of 50 μM 1-(5-(4-cyanophenyl)bicyclo[3.1.0]hexan-2-yl)-3-(4-fluoro-3-(trifluoromethyl)phenyl)-1-(3-(4-methylpiperazin-1-yl)propyl)urea. Following incubation, the samples were filtered rapidly under vacuum through Skatron 11731 filters, pre-soaked in 0.5% polyethylenimine, and washed with ice-cold 50 mM Tris-HCl buffer, pH 7.4, (wash setting 9,9,0) using a Skatron cell harvester. The filters were counted for radioactivity in a liquid scintillation counter (Tri-Carb 2100TR, Packard) using a scintillation cocktail (Ultima Gold MV, Perkin Elmer).
The results are expressed as a percent inhibition of the control radioligand specific binding. The IC50 value (concentration causing a half-maximal inhibition of control specific binding) and Hill coefficient (nH) were determined by non-linear regression analysis of the competition curve using Hill equation curve fitting. The inhibition constant (Ki) was calculated from the Cheng Prusoff equation: (Ki=IC50/(1+(L/KD)), where L=concentration of radioligand in the assay, and KD=affinity of the radioligand for the receptor.

Sequence of human MCH-1 receptor (Q99705 whole entry): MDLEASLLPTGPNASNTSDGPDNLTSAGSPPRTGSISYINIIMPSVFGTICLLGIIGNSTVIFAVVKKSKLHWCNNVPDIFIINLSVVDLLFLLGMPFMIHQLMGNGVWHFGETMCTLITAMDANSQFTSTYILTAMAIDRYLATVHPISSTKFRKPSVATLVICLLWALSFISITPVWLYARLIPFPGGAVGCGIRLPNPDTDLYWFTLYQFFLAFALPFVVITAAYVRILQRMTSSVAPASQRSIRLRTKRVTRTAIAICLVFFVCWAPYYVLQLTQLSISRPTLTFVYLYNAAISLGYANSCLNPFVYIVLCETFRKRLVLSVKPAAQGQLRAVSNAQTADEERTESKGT

With `Cn1c2c(c3ccc(-n4ccc(OCc5ccc(F)cn5)cc4=O)cc31)CN1CCCC1C2` (stereo not shown) (as salt: hydrochloride) [Example 12, 4-((5-Fluoropyridin-2-yl)methoxy)-1-(10-methyl-2,3,5,10,11,11a-hexahydro-1H-indolizino[7,6-b]indol-8-yl)pyridin-2(1H)-one Hydrochloride], the melting point was in the range of 290 to 293 °C.

Turning to `Cc1ccc(-c2ccn(-c3ccc4c5c(n(C)c4c3)CC3CCCN3C5)c(=O)c2)cn1` (stereo not shown) (as salt: hydrochloride) [Example 13, 1-(10-Methyl-2,3,5,10,11,11a-hexahydro-1H-indolizino[7,6-b]indol-8-yl)-4-(6-methylpyridin-3-yl)pyridin-2(1H)-one Hydrochloride], the melting point is 305 °C (dec.).

Molecule `Cc1ccc(-c2ccn(-c3ccc4c5c(n(C)c4c3)CCN3CCCC53)c(=O)c2)cn1` (stereo not shown) (as salt: hydrochloride) [Example 15, 1-(7-Methyl-2,3,5,6,7,11c-hexahydro-1H-indolizino[7,8-b]indol-9-yl)-4-(6-methylpyridin-3-yl)pyridin-2(1H)-one Hydrochloride] displayed a melting point of 280 to 283 °C. On to `Cn1c2c(c3ccc(-n4ccc(OCc5ccc(F)cn5)cc4=O)cc31)C1CCCN1CC2` (stereo not shown) (as salt: hydrochloride) [Example 19, 4-((5-Fluoropyridin-2-yl)methoxy)-1-(7-methyl-2,3,5,6,7,11c-hexahydro-1H-indolizino[7,8-b]indol-9-yl)pyridin-2(1H)-one Dihydrochloride], for which the melting point fell in the range of 240 to 243 °C.

Molecule `Cc1ccc(COc2ccn(-c3ccc4c5c(n(C)c4c3)CCN3CCCC53)c(=O)c2)cn1` (stereo not shown) (as salt: hydrochloride) [Example 20, 1-(7-Methyl-2,3,5,6,7,11c-hexahydro-1H-indolizino[7,8-b]indol-9-yl)-4-((6-methylpyridin-3-yl)methoxy)pyridin-2(1H)-one Dihydrochloride] showed a melting point of 280 to 282 °C. For the molecule `Cn1c2c(c3ccc(-n4ccc(OCc5ccc(F)cn5)cc4=O)cc31)C1CCCCN1CC2` (stereo not shown) (as salt: hydrochloride) [Example 21, 4-((5-Fluoropyridin-2-yl)methoxy)-1-(8-methyl-1,2,3,4,6,7,8,12c-octahydroindolo[3,2-a]quinolizin-10-yl)pyridin-2(1H)-one Hydrochloride], the melting point fell in the range of 256 to 258 °C. Consider `Cc1ccc(COc2ccn(-c3ccc4c5c(n(C)c4c3)CCN3CCCCC53)c(=O)c2)cn1` (stereo not shown) (as salt: hydrochloride) [Example 23, 1-(8-Methyl-1,2,3,4,6,7,8,12c-octahydroindolo[3,2-a]quinolizin-10-yl)-4-((6-methylpyridin-3-yl)methoxy)pyridin-2(1H)-one Dihydrochloride], for which the melting point fell in the range of 210 to 214 °C. `Cc1ccc(COc2ccn(-c3ccc4c5c(n(C)c4c3)CC3CCCN3C5)c(=O)c2)cn1` (stereo not shown) (as salt: hydrochloride) [Example 31, 1-(10-Methyl-2,3,5,10,11,11a-hexahydro-1H-indolizino[7,6-b]indol-8-yl)-4-((6-methylpyridin-3-yl)methoxy)pyridin-2(1H)-one Hydrochloride]: the melting point lay in the range of 260 to 263 °C. As for `Cn1c2c(c3ccc(-n4ccc(OCc5ccccc5)cc4=O)cc31)CCN1CCCCCC21` (stereo not shown) [Example 10, 4-(Benzyloxy)-1-(13-methyl-2,3,4,5,7,8,13,13b-octahydro-1H-pyrido[1,2-a]azepino[10,9-b]indol-10-yl)pyridin-2(1H)-one Hydrochloride], the Ki on human MCH-1 receptor came out at 47 nM. The same measure, in the same setting: then `Cc1ccc(-c2ccn(-c3ccc4c5c(n(C)c4c3)CC3CCCN3C5)c(=O)c2)cn1` (stereo not shown) [Example 13, 1-(10-Methyl-2,3,5,10,11,11a-hexahydro-1H-indolizino[7,6-b]indol-8-yl)-4-(6-methylpyridin-3-yl)pyridin-2(1H)-one Hydrochloride], with 59 nM.

At human MCH-1 receptor, `Cc1ccc(-c2ccn(-c3ccc4c5c(n(C)c4c3)CCN3CCCC53)c(=O)c2)cn1` (stereo not shown) [Example 15, 1-(7-Methyl-2,3,5,6,7,11c-hexahydro-1H-indolizino[7,8-b]indol-9-yl)-4-(6-methylpyridin-3-yl)pyridin-2(1H)-one Hydrochloride] displayed an inhibition constant Ki of 76 nM. Still for that read-out and setting: for `Cn1c2c(c3ccc(-n4ccc(OCc5ccc(F)cn5)cc4=O)cc31)C1CCCN1CC2` (stereo not shown) [Example 19, 4-((5-Fluoropyridin-2-yl)methoxy)-1-(7-methyl-2,3,5,6,7,11c-hexahydro-1H-indolizino[7,8-b]indol-9-yl)pyridin-2(1H)-one Dihydrochloride] the value was 11 nM; for `Cc1ccc(COc2ccn(-c3ccc4c5c(n(C)c4c3)CCN3CCCC53)c(=O)c2)cn1` (stereo not shown) [Example 20, 1-(7-Methyl-2,3,5,6,7,11c-hexahydro-1H-indolizino[7,8-b]indol-9-yl)-4-((6-methylpyridin-3-yl)methoxy)pyridin-2(1H)-one Dihydrochloride], 13 nM. On the same count and under the same terms, then `Cn1c2c(c3ccc(-n4ccc(OCc5ccc(F)cn5)cc4=O)cc31)C1CCCCN1CC2` (stereo not shown) [Example 21, 4-((5-Fluoropyridin-2-yl)methoxy)-1-(8-methyl-1,2,3,4,6,7,8,12c-octahydroindolo[3,2-a]quinolizin-10-yl)pyridin-2(1H)-one Hydrochloride], with 8.4 nM.

`Cc1ccc(COc2ccn(-c3ccc4c5c(n(C)c4c3)CCN3CCCCC53)c(=O)c2)cn1` (stereo not shown) [Example 23, 1-(8-Methyl-1,2,3,4,6,7,8,12c-octahydroindolo[3,2-a]quinolizin-10-yl)-4-((6-methylpyridin-3-yl)methoxy)pyridin-2(1H)-one Dihydrochloride] registered a Ki at human MCH-1 receptor of 19 nM. On the same count and under the same terms, then `O=c1cc(OCc2ccccc2)ccn1-c1ccc2c3c([nH]c2c1)CCN1CCCC31` (stereo not shown) [Example 24, 4-(Benzyloxy)-1-(2,3,5,6,7,11c-hexahydro-1H-indolizino[7,8-b]indol-9-yl)pyridin-2(1H)-one Hydrochloride], with 6 nM; and `O=c1cc(OCc2ccc(F)cn2)ccn1-c1ccc2c3c([nH]c2c1)CCN1CCCC31` (stereo not shown) [Example 25, 4-((5-Fluoropyridin-2-yl)methoxy)-1-(2,3,5,6,7,11c-hexahydro-1H-indolizino[7,8-b]indol-9-yl)pyridin-2(1H)-one Hydrochloride], with 14 nM. The same measure, in the same setting: for `Cc1ccc(COc2ccn(-c3ccc4c5c(n(C)c4c3)CC3CCCN3C5)c(=O)c2)cn1` (stereo not shown) [Example 31, 1-(10-Methyl-2,3,5,10,11,11a-hexahydro-1H-indolizino[7,6-b]indol-8-yl)-4-((6-methylpyridin-3-yl)methoxy)pyridin-2(1H)-one Hydrochloride] the value was 22 nM; for `Cc1ccc(COc2ccn(-c3ccc4c5c(n(C)c4c3)CC3CCCCN3C5)c(=O)c2)cn1` (stereo not shown) [Example 33, 1-(5-Methyl-5,6,6a,7,8,9,10,12-octahydroindolo[2,3-b]quinolizin-3-yl)-4-((6-methylpyridin-3-yl)methoxy)pyridin-2(1H)-one Dihydrochloride], 31 nM; for `Cc1ccc(-c2ccn(-c3ccc4c5c(n(C)c4c3)CC3CCCCN3C5)c(=O)c2)cn1` (stereo not shown) [Example 35, 1-(5-Methyl-5,6,6a,7,8,9,10,12-octahydroindolo[2,3-b]quinolizin-3-yl)-4-(6-methylpyridin-3-yl)pyridin-2(1H)-one Dihydrochloride], 193 nM. `Cn1c2c(c3ccc(-n4ccc(OCc5ccc(F)cn5)cc4=O)cc31)CN1CCCCC1C2` (stereo not shown) [Example 37, 4-((5-Fluoropyridin-2-yl)methoxy)-1-(5-methyl-5,6,6a,7,8,9,10,12-octahydroindolo[2,3-b]quinolizin-3-yl)pyridin-2(1H)-one Dihydrochloride] yielded an inhibition constant (Ki) at human MCH-1 receptor (Dihydrochloride) of 10 nM. `O=c1cc(OCc2ccc(F)cn2)ccn1-c1ccc2c3c([nH]c2c1)CC1CCCN1C3` (stereo not shown) [Example 40, 4-((5-Fluoropyridin-2-yl)methoxy)-1-(2,3,5,10,11,11a-hexahydro-1H-indolizino[7,6-b]indol-8-yl)pyridin-2(1H)-one Hydrochloride]: at human MCH-1 receptor, the Ki stood at 14 nM. As for `O=c1cc(OCc2ccc(Cl)cc2F)ccn1-c1ccc2c3c([nH]c2c1)CC1CCCN1C3` (stereo not shown) [Example 42, 4-(4-Chloro-2-fluorobenzyloxy)-1-(2,3,5,10,11,11a-hexahydro-1H-indolizino[7,6-b]indol-8-yl)pyridin-2(1H)-one Hydrochloride], on human MCH-1 receptor, affinity was put at a Ki of 19 nM. The same measure, in the same setting: for `Cn1c2c(c3ccc(-n4ccc(OCc5ccc(F)cn5)cc4=O)cc31)CCN1CCCC21` (stereo not shown) [Example 43, 4-((5-Fluoropyridin-2-yl)methoxy)-1-(11-methyl-2,3,5,6,11,11b-hexahydro-1H-indolizino[8,7-b]indol-9-yl)pyridin-2(1H)-one Dihydrochloride] the value was 26 nM. Same read-out and setting: for `Cn1c2c(c3ccc(-n4ccc(OCc5ccc(F)cn5)cc4=O)nc31)C1CCCN1CC2` (stereo not shown) [Example 45, 4-((5-Fluoropyridin-2-yl)methoxy)-1-(7-methyl-2,3,5,6,7,11c-hexahydro-1H-pyrido[3′,2′:4,5]pyrrolo[2,3-g]indolizin-9-yl)pyridin-2(1H)-one Hydrochloride] the value was 21 nM.

As usually defined, the melting point is the temperature, or range, at which the solid turns liquid. The Ki is the equilibrium dissociation constant of an inhibitor or competing ligand from its target. High values mean lower affinity, low ones higher affinity.
